Consider 2 compounds from US10780094B2, “Use of carbonic anhydrase inhibitors for treatment of neurological and psychiatric disorders” (New York University, priority 2016, dated 2020).

The conditions of series [1]: Wright et al., 2008; cited from earlier work.
Series [2] relates to SH-SY5Y cells. In words: Cellular ROS (CellROX, DCFDA). The format is cell-based, human. As to conditions: Aβ42 in the presence or absence of MTZ; 24 hours. The protocol:
For the last 30 minutes, the cells were incubated in the experimental medium at 37° C. with 5 μM CellROX Deep Red (Life Technologies) and 1 μg/ml Hoechst Stain (Immunochemistry Technologies, Bloomington, Minn.), as described by the manufacturer, followed by washes. Fluorescence was measured using a FlexStation 3 Multi-Mode Microplate Reader (Molecular Devices, Sunnyvale, Calif.).
10.000 cells of either SH-SY5Y or D3 cells were plated on 96-wells plates. The day after, cells were treated with the peptides and/or the drugs for the established experimental times. CellROX reagent was then added, directly, to the growing media, at a final concentration of 5 μM. 10 μg/mL of Hoescht 333258 was also added to the medium containing the CellROX reagent, in order to dye cell nuclei. Cells were incubated with both CellROX and Hoescht 333258, at 37° C., for 30 min., just before the ending time-point of the treatment. After 30 min., the medium was removed and cells were washed once in PBS 1× at room temperature. […]
Cells were plated on 96-wells microplate fluorescence microtiter (ThermoFisher, Waltham, Mass., US), and treated with peptides and/or drugs on phenol red free medium, with no serum in the case of the SH-SY5Y cells and 1% serum on the D3. […] Fluorescence was measured using a FlexStation (Molecular devices, Sunnyvalem Calif., US).

Another series concerns Glioma cells. In words: Aβ-induced mitochondrial Cytochrome C release. The class given is cell-based, human. The protocol: (§1) Both SH-SY5Y cells and Glioma cells were plated on glass chamber slides (Thermo Fisher Scientific, Rochester, N.Y.). Slides were pre-coated with poly-D-lysine for SH-SY5Y cells. After seeding, cells were allowed to attach for 1 day prior to treatment with Aβ in the presence or absence of MTZ for 24 hours. Cells were then washed with PBS, fixed with 4% paraformaldehyde (10 min, RT) and blocked for 1 hour with 20 mg/ml BSA in PBS containing 0.3% Triton X-100 (PBST). Slides were further incubated with mouse monoclonal anti-CytC antibody (BD Biosciences; 1:200 in PBST containing 5 mg/ml BSA; 2 h, RT) followed by Alexa Fluor 488-conjugated anti-mouse IgG (Life Technologies, Grand Island, N.Y.) 1:200 in PBST with 5 mg/ml BSA for 1 h at RT, as previously described (Fossati et al., 2013). Fluorescence signals were visualized in a Zeiss LSM 510 laser scanning confocal/Confocor2 microscope using a 40×DIC oil immersion objective and LSM 510 software; acquired images were imported into ImageJ (National Institute of Health; http://rsbweb.nih.gov/ij/).
(§2) Subcellular distribution of CytC in amyloid-challenged SH-SY5Y and glioma cells was determined in mitochondrial and cytoplasmic protein extracts prepared using Mitochondria Isolation Kit (MITOISO2, Sigma) following the manufacturer's specifications. Briefly, after amyloid challenge in the presence and absence of Methazolamide, as above, cells were collected by trypsinization, resuspended in 10 mM HEPES, pH 7.5, containing 200 mM mannitol, 70 mM sucrose, 1 mM EGTA added of Protease Inhibitor Cocktail, and homogenized with the aid of a Dounce glass homogenizer. Cell homogenates were centrifuged to remove unbroken cells and nuclei (600×g, 5 min, 4° C.) and supernatants further centrifuged at 11,000×g (5 min, 4° C.) to subfractionate mitochondria. Supernatants, representing the cytosolic fractions as well as mitochondrial fractions were analyzed by CytC ELISA and WB.
(§3) The concentration of CytC in cytosolic and mitochondrial fractions was quantitated by solid phase sandwich ELISA (Quantikine ELISA, human Cytochrome C Immunoassay, R&D Systems) as described by the manufacturer. Prior to the assay, fractions containing cytoplasmic proteins were concentrated on Vivaspin 500 centrifugal concentrators (GE HealthCare, molecular weight cut off 5000), mitochondrial pellets were resuspended in Cell Lysis Buffer provided with the kit, and total protein of the respective fractions was evaluated by BCA protein assay (Thermo Fisher Scientific/Pierce). […] After washing away unbound proteins, wells were further incubated with an HRP-linked monoclonal antibody anti-human CytC, color developed with tetramethylbenzinine peroxidase substrate, and evaluated through quantitation of the Absorbance at 450 nm. […]

The subject of series [3] is SH-SY5Y cells. In words: Aβ-induced mitochondrial Cytochrome C release. The format is cell-based, human. The protocol: as §1, §2, §3
The mark [4] stands for this setting: 100 μM MTZ together with Aβ42 10 μM, 24 hours.
Where [5] appears, read: MTZ 100 and 300 μM, Aβ42 10 μM, 24 h.

`CC(=O)Nc1nnc(S(N)(=O)=O)s1` [ATZ, acetazolamide]: the “well tolerated daily dose in humans” value in series [1] is no more than 1000 mg.
As to `CC(=O)/N=c1/sc(S(N)(=O)=O)nn1C` [MTZ, methazolamide], in the series with SH-SY5Y cells [2], the “levels of cellular ROS (CellROX)” value is reported as “did not significantly change”. In addition, the “release of CytC (immunocytochemistry)” value in the series with Glioma cells (setting [4]) and with SH-SY5Y cells [3] (setting [4]) was “prevented” each time. The “release of CytC by ELISA and Western blot in mitochondrial and cytosolic fractions” value in the series on Glioma cells (setting [5]) and in the series on SH-SY5Y cells [3] (setting [5]) was “inhibition” throughout.
